US20080234202A1, “Non-natural amino acids and neurotensin analogues” (priority 2004, published 2008)
Where a SMILES comes first, the peptide text is derived from it. [ ]: non-standard residue; d: D form. The star is where a group is joined. Tle = CC(C)(C)[C@H](N)C(=O)O; X1 = C[C@@H](CCCCCN)C(=O)*

Columns and labels:
CYP2B6 = biological target: T1, CYP2B6 (Homo sapiens, UniProt P20813); test: Liver CYP screening: CYP2B6; settings: 10^−3, 10^−2, 0.1 M
T1 sequence (P20813 1-491): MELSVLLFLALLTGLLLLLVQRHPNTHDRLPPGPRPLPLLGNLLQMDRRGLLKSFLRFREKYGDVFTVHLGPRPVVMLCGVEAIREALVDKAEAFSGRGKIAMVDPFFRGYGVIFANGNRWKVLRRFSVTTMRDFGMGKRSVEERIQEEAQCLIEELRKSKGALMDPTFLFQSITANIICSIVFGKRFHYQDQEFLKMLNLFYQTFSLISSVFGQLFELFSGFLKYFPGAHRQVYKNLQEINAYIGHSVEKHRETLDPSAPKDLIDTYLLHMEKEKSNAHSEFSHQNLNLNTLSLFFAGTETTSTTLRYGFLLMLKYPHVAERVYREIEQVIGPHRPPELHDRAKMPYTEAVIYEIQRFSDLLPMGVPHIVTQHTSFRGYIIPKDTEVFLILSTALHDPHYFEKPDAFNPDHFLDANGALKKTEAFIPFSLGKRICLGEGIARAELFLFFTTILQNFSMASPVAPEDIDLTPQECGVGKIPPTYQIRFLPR
Excerpt: (§1) Liver Receptor Screening (Stanford Research Institute Study B213-06).

CYP2C19 = CYP2C19 (Homo sapiens, UniProt P33261); test: Liver CYP screening: CYP2C19; settings: 10^−3, 10^−2, 0.1 M
Chain of CYP2C19 (P33261 whole entry): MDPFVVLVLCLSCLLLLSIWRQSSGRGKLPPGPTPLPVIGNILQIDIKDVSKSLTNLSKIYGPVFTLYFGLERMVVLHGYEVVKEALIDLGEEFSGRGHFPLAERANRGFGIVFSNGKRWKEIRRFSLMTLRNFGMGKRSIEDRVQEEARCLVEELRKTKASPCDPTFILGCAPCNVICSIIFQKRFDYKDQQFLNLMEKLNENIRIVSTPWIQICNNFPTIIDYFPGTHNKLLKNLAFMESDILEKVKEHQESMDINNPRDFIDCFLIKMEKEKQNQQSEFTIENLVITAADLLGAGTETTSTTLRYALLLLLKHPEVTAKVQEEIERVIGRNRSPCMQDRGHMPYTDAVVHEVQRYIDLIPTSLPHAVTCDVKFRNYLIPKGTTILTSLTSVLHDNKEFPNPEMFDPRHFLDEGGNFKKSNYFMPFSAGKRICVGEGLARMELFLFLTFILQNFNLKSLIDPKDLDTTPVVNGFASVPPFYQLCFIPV
Excerpt: as §1

CYP3A4 = CYP3A4 (Homo sapiens, UniProt P08684); test: Liver CYP screening: CYP3A4; settings: 10^−3, 10^−2, 0.1 M
Chain of CYP3A4 (P08684 whole entry): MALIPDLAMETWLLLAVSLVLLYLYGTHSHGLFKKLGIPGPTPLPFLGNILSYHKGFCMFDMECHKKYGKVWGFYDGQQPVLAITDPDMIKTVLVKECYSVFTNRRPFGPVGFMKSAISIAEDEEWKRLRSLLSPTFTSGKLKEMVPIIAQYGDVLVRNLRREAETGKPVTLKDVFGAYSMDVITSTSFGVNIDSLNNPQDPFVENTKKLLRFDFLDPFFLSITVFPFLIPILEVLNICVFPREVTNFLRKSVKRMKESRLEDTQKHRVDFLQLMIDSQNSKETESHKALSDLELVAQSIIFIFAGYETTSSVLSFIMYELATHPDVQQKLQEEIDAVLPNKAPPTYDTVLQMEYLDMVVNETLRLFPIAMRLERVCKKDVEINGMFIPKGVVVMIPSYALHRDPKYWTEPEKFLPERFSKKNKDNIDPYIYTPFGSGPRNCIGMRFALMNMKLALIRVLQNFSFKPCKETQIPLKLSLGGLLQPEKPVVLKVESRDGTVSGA
Excerpt: as §1

[1] = biological target: hERG (human ether-a-go-go related gene) channels (Homo sapiens, UniProt Q12809); settings: HEK293, 35±2° C.; initial results
Chain of hERG (human ether-a-go-go related gene) channels (Q12809 whole entry): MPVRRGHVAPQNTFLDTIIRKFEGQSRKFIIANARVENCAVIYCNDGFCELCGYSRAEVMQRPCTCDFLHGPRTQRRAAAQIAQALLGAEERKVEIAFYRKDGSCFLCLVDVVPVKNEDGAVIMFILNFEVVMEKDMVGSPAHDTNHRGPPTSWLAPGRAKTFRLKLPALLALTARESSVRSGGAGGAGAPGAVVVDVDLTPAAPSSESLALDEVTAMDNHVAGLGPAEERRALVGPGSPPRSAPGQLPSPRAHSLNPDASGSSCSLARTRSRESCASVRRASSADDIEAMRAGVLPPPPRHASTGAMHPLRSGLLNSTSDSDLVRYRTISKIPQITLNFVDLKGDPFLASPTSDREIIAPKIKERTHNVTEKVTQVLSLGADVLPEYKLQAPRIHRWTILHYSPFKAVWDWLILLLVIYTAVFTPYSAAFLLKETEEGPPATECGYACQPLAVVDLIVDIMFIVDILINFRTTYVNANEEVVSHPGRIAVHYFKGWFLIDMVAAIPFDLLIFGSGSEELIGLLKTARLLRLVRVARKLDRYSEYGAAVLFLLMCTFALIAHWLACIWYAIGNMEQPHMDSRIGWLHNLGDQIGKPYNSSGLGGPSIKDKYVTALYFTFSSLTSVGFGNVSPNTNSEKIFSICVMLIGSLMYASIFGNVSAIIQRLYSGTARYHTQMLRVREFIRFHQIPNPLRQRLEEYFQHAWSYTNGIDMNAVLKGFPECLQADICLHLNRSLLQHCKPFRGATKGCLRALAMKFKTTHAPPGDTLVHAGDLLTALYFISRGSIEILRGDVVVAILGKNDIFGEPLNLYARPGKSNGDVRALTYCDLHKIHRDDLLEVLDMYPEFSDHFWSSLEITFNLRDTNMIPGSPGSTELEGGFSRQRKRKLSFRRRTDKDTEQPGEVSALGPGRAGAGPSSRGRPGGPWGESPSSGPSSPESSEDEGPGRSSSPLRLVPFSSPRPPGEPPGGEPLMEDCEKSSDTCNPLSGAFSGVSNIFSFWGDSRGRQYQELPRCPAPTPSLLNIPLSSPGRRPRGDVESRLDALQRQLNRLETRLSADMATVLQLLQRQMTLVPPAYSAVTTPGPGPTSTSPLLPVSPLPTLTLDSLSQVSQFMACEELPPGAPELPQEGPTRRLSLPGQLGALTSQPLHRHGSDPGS
Protocol: hERG Assay. The objective of the hERG study is to assess the effects of the test article on the rapidly activating inward rectifying potassium current (IKr) conducted by hERG (human ether-a-go-go related gene) channels stably expressed in a HEK293 cell line. The method used is as follows. HEK293 cells, stably transfected with hERG cDNA, were used in the study. All experiments were performed at near-physiological temperature (35±2° C.). A positive control (60 nM terfenadine) was applied to two cells (n≧2). Cells were be transferred to the recording chamber and superfused with HB-PS solution. The recording chamber and bathing solution were maintained at a temperature of 35±2° C. using a combination of in-line solution pre-heater, chamber floor heater, and feedback temperature controller. Bath temperature were measured using a thermistor probe.
Patch pipettes were made from glass capillary tubing using a P-97 micropipette puller (Sutter Instruments, Calif.). A commercial patch clamp amplifier was used for whole cell recordings. Before digitization, current records were low-pass filtered at one-fifth of the sampling frequency.
Cells stably expressing hERG were held at −80 mV.

CYP2D6 = CYP2D6 (Homo sapiens, UniProt P10635); test: Liver CYP screening: CYP2D6; settings: 10^−3, 10^−2, 0.1 M
Chain of CYP2D6 (P10635 whole entry): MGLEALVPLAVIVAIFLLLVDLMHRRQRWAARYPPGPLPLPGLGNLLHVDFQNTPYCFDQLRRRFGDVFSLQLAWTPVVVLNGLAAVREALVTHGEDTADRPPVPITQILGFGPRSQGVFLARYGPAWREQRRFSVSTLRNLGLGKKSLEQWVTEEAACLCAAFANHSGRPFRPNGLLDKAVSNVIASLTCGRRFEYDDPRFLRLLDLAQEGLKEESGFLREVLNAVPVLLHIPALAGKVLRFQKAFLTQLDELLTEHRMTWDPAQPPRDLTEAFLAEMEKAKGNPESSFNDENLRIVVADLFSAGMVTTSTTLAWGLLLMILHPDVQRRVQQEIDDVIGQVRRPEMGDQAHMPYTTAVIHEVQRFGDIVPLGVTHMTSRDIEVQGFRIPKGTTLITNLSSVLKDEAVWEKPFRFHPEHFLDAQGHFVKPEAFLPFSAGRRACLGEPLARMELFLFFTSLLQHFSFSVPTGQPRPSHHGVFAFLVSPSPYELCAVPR
Excerpt: as §1

[2] = Acute toxicity, clinical observation and maximum tolerated dose in rats; assay type: in vivo, rat
Protocol: During the 2 and 24 hour post-dosing clinical observation periods, measurements of core body temperatures were taken.

[3] = whole blood, 5 or 30 min at 37° C.
CYP1A2 = biological target: T2, CYP1A2 (Homo sapiens, UniProt P05177); test: Liver CYP screening: CYP1A2; settings: 10^−3, 10^−2, 0.1 M
T2 sequence (P05177 1-516): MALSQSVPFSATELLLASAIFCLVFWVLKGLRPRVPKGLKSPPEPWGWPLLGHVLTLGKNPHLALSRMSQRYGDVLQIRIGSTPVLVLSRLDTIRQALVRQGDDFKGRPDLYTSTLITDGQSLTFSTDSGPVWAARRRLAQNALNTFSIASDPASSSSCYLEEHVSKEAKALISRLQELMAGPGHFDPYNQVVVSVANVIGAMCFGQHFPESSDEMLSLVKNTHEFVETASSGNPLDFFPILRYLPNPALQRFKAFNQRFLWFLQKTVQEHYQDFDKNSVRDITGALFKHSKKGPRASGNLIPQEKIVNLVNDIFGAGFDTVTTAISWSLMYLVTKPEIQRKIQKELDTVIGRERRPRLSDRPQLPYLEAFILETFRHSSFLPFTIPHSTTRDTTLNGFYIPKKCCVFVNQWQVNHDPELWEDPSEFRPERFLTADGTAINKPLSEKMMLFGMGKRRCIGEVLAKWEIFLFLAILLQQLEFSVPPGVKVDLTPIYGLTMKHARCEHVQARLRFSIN
Excerpt: as §1

[4] = Protocol: These samples were used for the determination of plasma drug by LC/MS/MS for estimating pharmacokinetic parameters and segmental absorption. The bioavailability of intra-stomach, intra-duodenum, intra-jejunum, intra-colon administration relative to intravenous administration and gavage was calculated.
CYP2C9 = CYP2C9 (Homo sapiens, UniProt P11712); test: Liver CYP screening: CYP2C9; settings: 10^−3, 10^−2, 0.1 M
Chain of CYP2C9 (P11712 whole entry): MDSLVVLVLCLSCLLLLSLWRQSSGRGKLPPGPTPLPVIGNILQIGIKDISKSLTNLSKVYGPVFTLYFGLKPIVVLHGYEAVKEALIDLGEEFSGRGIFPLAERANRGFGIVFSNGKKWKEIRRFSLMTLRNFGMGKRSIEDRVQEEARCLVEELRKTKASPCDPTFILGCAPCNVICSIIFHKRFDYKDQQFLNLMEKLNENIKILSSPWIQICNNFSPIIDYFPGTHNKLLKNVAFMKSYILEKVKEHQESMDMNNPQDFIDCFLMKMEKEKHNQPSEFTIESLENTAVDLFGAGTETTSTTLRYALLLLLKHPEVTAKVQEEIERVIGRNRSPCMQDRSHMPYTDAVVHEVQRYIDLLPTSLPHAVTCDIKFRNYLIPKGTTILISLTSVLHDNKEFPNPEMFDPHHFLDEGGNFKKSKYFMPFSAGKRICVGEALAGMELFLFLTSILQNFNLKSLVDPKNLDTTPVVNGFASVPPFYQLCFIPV
Excerpt: as §1

[5] = Catalepsy, horizontal bar test; settings: Table 11
Protocol: Cataleptic Analysis. In laboratory tests, catalepsy is characterized by the inability of an animal to correct its position after placement in an unnatural posture. […] To circumvent these potential confounding factors, tests are performed on an animal only once in a quiet, controlled environment.
Catalepsy Assessment. […] Rats were given an IP injection of peptide (5 mg/Kg), saline, or haloperidol (1 mg/kg). After 3 hours, catalepsy was measured using the horizontal bar test. Briefly, the front paws were placed directly on a horizontal bar 5 mm in diameter placed 7.5 cm above the cage floor. The rat was held in this position for 3 sec and then released. The time from release until the paws return to the cage floor was measured and recorded. A cut-off time of 30 sec was observed; this indicated a fully cataleptic animal as cataleptic animals are frozen to the bar. […] Measures were repeated every 30 min for 4 hr. Data are means±SEM (p<0.01).
After 2 h, catalepsy was measured using the horizontal bar test. Data are means±SEM (p<0.01).

mouse bone marrow cells = test: Micronucleus study; assay type: in vivo; settings: oral, CD-1 mice; initial data
Protocol: Genetic Toxicology. […] Experimental protocols are as follows.
In the micronucleus study, 90 CD-1 mice used in the study consisted of 10/sex/group in Groups 1-4 (control, low-, mid-, and high-dose) and 5/sex in the positive control group. Test peptide as administered orally, the positive control, Cyclophosphamide at 80 mg/kg, as administered orally. Approximately 24 and 48 hours after dosing, mice were killed and bone marrow obtained from both femurs. A slide of a bone marrow suspension was prepared, stained with Wright-Giemsa stain, dried, and scored blind. The number of polychromatic erythrocytes (PCE) among the total erythrocytes (PCE+normochromatic erythrocytes (NCE)) were determined for each animal by counting at least 200 erythrocytes. The number of micronucleated polychromatic erythrocytes (MPCE) then were scored for 2000 PCE per animal. A positive result was obtained if there is a positive dose-response trend or statistically significant increase in the number of MPCE at one or more dose levels compared to controls.

[6] = 5 or 30 min incubation at 37° C.
[7] = Blood and plasma pharmacokinetics of ABS201 in rats
Excerpt: At selected time points, blood was removed or brain harvested and the concentration of the peptide analog determined using LC/MS/MS.
These samples were then used for the determination of plasma and brain drug levels by LC/MS/MS for estimating BBB penetration and pharmacokinetic parameters.

CC(C)C[C@H](NC(=O)[C@@H](NC(=O)[C@H](Cc1ccc(O)cc1)NC(=O)[C@@H]1CCCN1C(=O)[C@H](CCCNC(=N)N)NC(=O)[C@@H](C)CCCCCN)C(C)(C)C)C(=O)O [ABS201, hLys-Arg-Pro-Tyr-t-Leu-Leu] (X1-RPY[Tle]L-OH)
inhibition of substrate binding (CYP2B6): No inhibition
inhibition of substrate binding (CYP2C19): No inhibition
inhibition of substrate binding (CYP3A4): No inhibition
hERG study result [1]: inactive
inhibition of substrate binding (CYP2D6): No inhibition
lower limit for the MTD ([2]; rat, in vivo): ≥ 100 times the ED50
Toxicity, dose without toxicity ([2]; single acute dose I.P.): (>100 × ED50)
Toxicity ([2]; single acute dose at 100x ED50 administered I.P.): No
distribution into blood cellular elements [3]: about 33%
inhibition of substrate binding (CYP1A2): No inhibition
segment with maximal uptake ([4]; in situ looped models): intra-duodenum exhibiting the maximal amount of uptake
site of absorption in the GI tract ([4]; in situ looped models): absorbed almost entirely in the intestine
uptake in the stomach ([4]; intra-stomach): Virtually no ABS201 is taken up in the stomach
inhibition of substrate binding (CYP2C9): No inhibition
Catalepsy [5]: No
micronucleus study result (mouse bone marrow cells): inactive
binding to plasma proteins [6]: little or no binding
time by which plasma levels decreased below the LLOD ([7]; IV 1 mg/kg): ≤ 45 min
clearance as % of rat hepatic blood flow ([7]; IV 5 mg/kg): 74.02%
time over which measurable in whole blood ([7]; IV 5 mg/kg): up to 120 minutes
time over which detectable in the blood and brain ([7]; IV 5 mg/kg or oral 50 mg/kg, LC/MS/MS): up to 120 minutes
